In ChEMBL document CHEMBL1201862, “PubChem BioAssay data set” (2004):
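1) Cells in 96-well plates. 2) Compound, 48 h, 5 concentrations. 3) Linear interpolation between surrounding doses. 4) Unreached endpoint = highest concentration. The concentration for 50% growth inhibition is given as GI50.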 Calls of active or inactive are those of the source. No stated cut-off is given here; in the data, active = GI50 up to about 1.1 µM and inactive = higher. Where a SMILES comes first, the peptide text is derived from it. [ ]: non-standard residue; d: D form. Ac5c = NC1(C(=O)O)CCCC1

Tests used:
Experiment in all cases: DTP human tumour cell line panel, 48 h
A498 = test system: A498
BT-549 = test system: BT-549
CAKI-1 = test system: CAKI-1
CCRF-CEM = test system: CCRF-CEM
DU-145 = test system: DU-145
HOP-62 = test system: HOP-62
M14 = test system: M14
NCI-H226 = test system: NCI-H226
NCI-H23 = test system: NCI-H23
NCI-H460 = test system: NCI-H460
OVCAR-8 = test system: OVCAR-8
SF-268 = test system: SF-268
SF-295 = test system: SF-295
SF-539 = test system: SF-539
SK-MEL-28 = test system: SK-MEL-28
SR = test system: SR
SW-620 = test system: SW-620
TK-10 = test system: TK-10
HCC 2998 = test system: HCC 2998

Row | Structure (SMILES) | GI50 (A498) | GI50 (BT-549) | GI50 (CAKI-1) | GI50 (CCRF-CEM) | GI50 (DU-145) | GI50 (HOP-62) | GI50 (M14) | GI50 (NCI-H226) | GI50 (NCI-H23) | GI50 (NCI-H460) | GI50 (OVCAR-8) | GI50 (SF-268) | GI50 (SF-295) | GI50 (SF-539) | GI50 (SK-MEL-28) | GI50 (SR) | GI50 (SW-620) | GI50 (TK-10) | GI50 (HCC 2998)
1 | CN(C)c1nncc2[nH]cnc12 | > 100 µM (inactive) | > 100 µM (inactive) | > 100 µM (inactive) | > 100 µM (inactive) | > 100 µM (inactive) | > 100 µM (inactive) | > 100 µM (inactive) | > 100 µM (inactive) | > 100 µM (inactive) | > 100 µM (inactive) | > 100 µM (inactive) | > 100 µM (inactive) | > 100 µM (inactive) | > 100 µM (inactive) | > 100 µM (inactive) | > 100 µM (inactive) | > 100 µM (inactive) | > 100 µM (inactive) | –
2 | CC1(C)OC(=S)N(c2ccccc2)C12C=Cc1cc3ccccc3cc1O2 (stereo unspecified) | > 100 µM (inactive) | > 100 µM (inactive) | > 100 µM (inactive) | > 100 µM (inactive) | > 100 µM (inactive) | > 100 µM (inactive) | > 100 µM (inactive) | > 100 µM (inactive) | > 100 µM (inactive) | > 100 µM (inactive) | > 100 µM (inactive) | > 100 µM (inactive) | > 100 µM (inactive) | – | > 100 µM (inactive) | 9.46 µM (inactive) | > 100 µM (inactive) | > 100 µM (inactive) | > 100 µM (inactive)
3 | CC[C@]1(Cc2ccc(OC)c(OC)c2)[C@@H]2C[C@@H](C3OCCO3)ON2O[C@H](OC2CCCC2(c2ccccc2)c2ccccc2)[C@@H]1OC(C)=O (stereo partly specified) | – | 25.6 µM (inactive) | 32.8 µM (inactive) | 18.7 µM (inactive) | 26.6 µM (inactive) | 19.6 µM (inactive) | 16.2 µM (inactive) | 20.6 µM (inactive) | 21 µM (inactive) | 16.1 µM (inactive) | 24.9 µM (inactive) | 19.9 µM (inactive) | 21.2 µM (inactive) | 40.4 µM (inactive) | 20.5 µM (inactive) | 16.1 µM (inactive) | 33 µM (inactive) | 45.3 µM (inactive) | –
4 | Nc1ccc(Nc2c3ccccc3nc3ccccc23)cc1 | – | > 10 µM (inactive) | 2.91 µM (inactive) | 2.09 µM (inactive) | 4.92 µM (inactive) | 4.32 µM (inactive) | 6.95 µM (inactive) | 1.38 µM (inactive) | 3.25 µM (inactive) | 0.565 µM (active) | 3.31 µM (inactive) | > 10 µM (inactive) | 2.62 µM (inactive) | 3.7 µM (inactive) | > 10 µM (inactive) | > 10 µM (inactive) | 2.26 µM (inactive) | 5.98 µM (inactive) | > 10 µM (inactive)
5 | COC(=O)/C=C(\S/C(=C(/c1ccc(OC)cc1)n1cc(C(=O)OC)c(C(=O)OC)n1)c1ccc(OC)cc1)C(=O)OC | > 100 µM (inactive) | 65.3 µM (inactive) | 2.58 µM (inactive) | 0.399 µM (active) | 15.6 µM (inactive) | 44.9 µM (inactive) | 21.6 µM (inactive) | 48.6 µM (inactive) | 37.2 µM (inactive) | 35.9 µM (inactive) | 2.11 µM (inactive) | 17.1 µM (inactive) | > 100 µM (inactive) | 21.6 µM (inactive) | 3.08 µM (inactive) | 2.77 µM (inactive) | 7.06 µM (inactive) | 4.33 µM (inactive) | –
6 | Cc1cc(NS(=O)(=O)c2ccc(NC(=O)c3ccc4nc5ccccc5c(Nc5ccc(S(=O)(=O)Nc6cc(C)on6)cc5)c4c3)cc2)no1 | – | > 50 µM (inactive) | > 50 µM (inactive) | > 50 µM (inactive) | > 50 µM (inactive) | > 50 µM (inactive) | > 50 µM (inactive) | > 50 µM (inactive) | > 50 µM (inactive) | > 50 µM (inactive) | > 50 µM (inactive) | > 50 µM (inactive) | > 50 µM (inactive) | > 50 µM (inactive) | > 50 µM (inactive) | > 50 µM (inactive) | > 50 µM (inactive) | > 50 µM (inactive) | > 50 µM (inactive)
7 | Cc1ccc2c(c1)SSSSS2 | 18.9 µM (inactive) | 19.8 µM (inactive) | 21 µM (inactive) | 4.1 µM (inactive) | 16.6 µM (inactive) | 20.2 µM (inactive) | 21.3 µM (inactive) | – | 20.8 µM (inactive) | 18.4 µM (inactive) | 21.9 µM (inactive) | 25.8 µM (inactive) | 19.8 µM (inactive) | – | 17.1 µM (inactive) | 40.3 µM (inactive) | 15.1 µM (inactive) | 20 µM (inactive) | 17.7 µM (inactive)
8 | Cc1ccc(C2(N3CCCC3)OC(C)(C)c3cccc4cccc2c34)cc1 (stereo unspecified) | 16.2 µM (inactive) | 15.7 µM (inactive) | 15.7 µM (inactive) | 41.1 µM (inactive) | 16.9 µM (inactive) | 16 µM (inactive) | 17.4 µM (inactive) | 15.3 µM (inactive) | 16.2 µM (inactive) | 13.5 µM (inactive) | 15.2 µM (inactive) | 12.9 µM (inactive) | 14.5 µM (inactive) | 16.9 µM (inactive) | – | 23.2 µM (inactive) | 16 µM (inactive) | 16.8 µM (inactive) | –
9 | OCCN(/N=C\c1ccc2ccccc2c1)C1=NCCN1 | – | 42.8 µM (inactive) | – | 27.6 µM (inactive) | 31.6 µM (inactive) | 42.6 µM (inactive) | 18.6 µM (inactive) | 12.9 µM (inactive) | 27.7 µM (inactive) | 29.4 µM (inactive) | 48.4 µM (inactive) | 35.1 µM (inactive) | 31 µM (inactive) | 21 µM (inactive) | 19.3 µM (inactive) | 25.6 µM (inactive) | 21.1 µM (inactive) | 37.7 µM (inactive) | 16.3 µM (inactive)
10 | Cc1cc(C2(O)C=C(C(C)(C)C)C(=O)C(C(C)(C)C)=C2)c(C)cc1C1(O)C=C(C(C)(C)C)C(=O)C(C(C)(C)C)=C1 | – | > 100 µM (inactive) | > 100 µM (inactive) | > 100 µM (inactive) | > 100 µM (inactive) | > 100 µM (inactive) | > 100 µM (inactive) | > 100 µM (inactive) | > 100 µM (inactive) | – | > 100 µM (inactive) | > 100 µM (inactive) | > 100 µM (inactive) | > 100 µM (inactive) | > 100 µM (inactive) | 17.2 µM (inactive) | > 100 µM (inactive) | > 100 µM (inactive) | –
11 | O=C1N[C@@H](c2c[nH]c3cc(Br)ccc23)C(=O)N[C@H]1c1c[nH]c2cc(Br)ccc12 | > 100 µM (inactive) | > 100 µM (inactive) | – | > 100 µM (inactive) | > 100 µM (inactive) | > 100 µM (inactive) | > 100 µM (inactive) | > 100 µM (inactive) | > 100 µM (inactive) | > 100 µM (inactive) | 29.9 µM (inactive) | 47.4 µM (inactive) | > 100 µM (inactive) | 79.8 µM (inactive) | > 100 µM (inactive) | > 100 µM (inactive) | > 100 µM (inactive) | > 100 µM (inactive) | > 100 µM (inactive)
12 | Brc1ccc(C2C3CSc4ccccc4C3=NN2c2ccccc2)cc1 (stereo unspecified) | > 100 µM (inactive) | > 100 µM (inactive) | 41 µM (inactive) | 34.8 µM (inactive) | > 100 µM (inactive) | > 100 µM (inactive) | > 100 µM (inactive) | > 100 µM (inactive) | > 100 µM (inactive) | 32.8 µM (inactive) | 62.1 µM (inactive) | 70.1 µM (inactive) | – | 59 µM (inactive) | 67.5 µM (inactive) | 44.2 µM (inactive) | 34.7 µM (inactive) | > 100 µM (inactive) | –
13 | O=C(NNC(=O)c1cc2ccccc2[nH]1)c1cc2ccccc2[nH]1 | > 100 µM (inactive) | > 100 µM (inactive) | > 100 µM (inactive) | > 100 µM (inactive) | > 100 µM (inactive) | > 100 µM (inactive) | > 100 µM (inactive) | > 100 µM (inactive) | – | > 100 µM (inactive) | > 100 µM (inactive) | > 100 µM (inactive) | > 100 µM (inactive) | > 100 µM (inactive) | > 100 µM (inactive) | 66.5 µM (inactive) | > 100 µM (inactive) | > 100 µM (inactive) | –
14 | C[N+](C)(C)CCOP(=O)([O-])OCCNC(=O)c1ccc2ccccc2c1 | – | 2.05 µM (inactive) | > 100 µM (inactive) | > 100 µM (inactive) | > 100 µM (inactive) | > 100 µM (inactive) | > 100 µM (inactive) | > 100 µM (inactive) | > 100 µM (inactive) | – | > 100 µM (inactive) | > 100 µM (inactive) | > 100 µM (inactive) | > 100 µM (inactive) | > 100 µM (inactive) | > 100 µM (inactive) | > 100 µM (inactive) | > 100 µM (inactive) | > 100 µM (inactive)
15 | NC1(C(=O)NC2(C(=O)O)CCCC2)CCCC1 (H-[Ac5c]-[Ac5c]-OH) | > 100 µM (inactive) | > 100 µM (inactive) | > 100 µM (inactive) | > 100 µM (inactive) | > 100 µM (inactive) | > 100 µM (inactive) | > 100 µM (inactive) | > 100 µM (inactive) | > 100 µM (inactive) | > 100 µM (inactive) | > 100 µM (inactive) | > 100 µM (inactive) | > 100 µM (inactive) | > 100 µM (inactive) | > 100 µM (inactive) | > 100 µM (inactive) | > 100 µM (inactive) | > 100 µM (inactive) | –
